# Experimental data as given in patent US8846699B2, “Quinazoline derivatives as a multiplex inhibitor and method for the preparation thereof” (Hanmi Pharm. Co., Ltd., priority 2005, dated 2014).
# Assays:
# [1] = system: Human Umbilical Vein Endothelial Cell (HUVEC); assay: Inhibitory effect on growth of human umbilical vein endothelial cell (HUVEC), MTS; assay type: cell-based; settings: 10 ng/ml VEGF, absorbance 490 nm
# VEGFR2 (KDR) = VEGFR2 (KDR) (Homo sapiens (Human), UniProt P35968); assay: VEGFR2 (KDR) enzyme assay, fluorescence polarization; assay type: biochemical; settings: 5 μM ATP, poly(Glu, Tyr) substrate
# Sequence of VEGFR2 (KDR) (P35968 20-1356): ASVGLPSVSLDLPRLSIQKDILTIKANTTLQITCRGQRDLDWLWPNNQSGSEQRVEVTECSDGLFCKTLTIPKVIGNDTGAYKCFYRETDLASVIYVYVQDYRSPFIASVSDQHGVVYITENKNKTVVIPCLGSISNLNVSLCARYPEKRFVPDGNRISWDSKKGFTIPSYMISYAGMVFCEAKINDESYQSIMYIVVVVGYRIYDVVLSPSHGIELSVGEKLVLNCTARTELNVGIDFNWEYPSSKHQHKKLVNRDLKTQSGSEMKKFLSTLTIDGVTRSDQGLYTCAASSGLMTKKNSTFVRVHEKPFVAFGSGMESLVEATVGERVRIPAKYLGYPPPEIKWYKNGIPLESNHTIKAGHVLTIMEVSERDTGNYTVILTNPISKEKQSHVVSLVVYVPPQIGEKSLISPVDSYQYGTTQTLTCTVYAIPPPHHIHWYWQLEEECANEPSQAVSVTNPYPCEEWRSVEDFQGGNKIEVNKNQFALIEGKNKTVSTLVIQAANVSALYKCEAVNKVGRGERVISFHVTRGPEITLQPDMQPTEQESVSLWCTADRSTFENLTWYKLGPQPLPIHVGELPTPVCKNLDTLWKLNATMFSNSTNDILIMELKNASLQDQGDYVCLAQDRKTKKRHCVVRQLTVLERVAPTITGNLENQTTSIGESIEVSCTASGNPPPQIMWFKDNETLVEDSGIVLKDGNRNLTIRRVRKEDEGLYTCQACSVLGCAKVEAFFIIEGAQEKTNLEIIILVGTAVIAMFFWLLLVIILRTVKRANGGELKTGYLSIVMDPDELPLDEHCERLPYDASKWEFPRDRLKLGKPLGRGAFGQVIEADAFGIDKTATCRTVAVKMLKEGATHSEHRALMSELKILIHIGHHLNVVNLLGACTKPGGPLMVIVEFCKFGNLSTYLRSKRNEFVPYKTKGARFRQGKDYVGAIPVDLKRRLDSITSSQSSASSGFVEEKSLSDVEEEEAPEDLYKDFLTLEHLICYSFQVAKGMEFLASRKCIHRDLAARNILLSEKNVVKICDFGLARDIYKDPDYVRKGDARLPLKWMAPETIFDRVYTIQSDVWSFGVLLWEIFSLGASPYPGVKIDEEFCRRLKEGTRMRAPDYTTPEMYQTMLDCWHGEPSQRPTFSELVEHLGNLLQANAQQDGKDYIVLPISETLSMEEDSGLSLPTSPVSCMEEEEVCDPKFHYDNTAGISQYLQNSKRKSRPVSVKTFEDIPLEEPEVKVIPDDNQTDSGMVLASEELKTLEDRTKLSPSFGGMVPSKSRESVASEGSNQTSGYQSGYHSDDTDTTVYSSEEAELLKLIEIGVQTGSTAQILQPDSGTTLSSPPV
# Summary of the method: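 Buffer: 20 mM HEPES pH 7.4 with 5 mM MgCl2, 2 mM MnCl2 and 50 μM Na3VO4. Compound (0.0001–10 μM) was premixed 10 min with VEGFR2 (200 ng/10 μl), then poly(Glu,Tyr) substrate (10 ng/ml) and 5 μM ATP were added for 1 h at room temperature. EDTA-quenched samples were read by FP after 30 min with antibody and tracer.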
# EGFR1 (HER-1) = EGFR1 (HER-1) (Homo sapiens (Human), UniProt P00533); assay: EGFR1 (HER-1) enzyme assay, fluorescence polarization; assay type: biochemical; settings: 100 μM ATP, poly(Glu, Tyr) substrate
# Sequence of EGFR1 (HER-1) (P00533 25-1210): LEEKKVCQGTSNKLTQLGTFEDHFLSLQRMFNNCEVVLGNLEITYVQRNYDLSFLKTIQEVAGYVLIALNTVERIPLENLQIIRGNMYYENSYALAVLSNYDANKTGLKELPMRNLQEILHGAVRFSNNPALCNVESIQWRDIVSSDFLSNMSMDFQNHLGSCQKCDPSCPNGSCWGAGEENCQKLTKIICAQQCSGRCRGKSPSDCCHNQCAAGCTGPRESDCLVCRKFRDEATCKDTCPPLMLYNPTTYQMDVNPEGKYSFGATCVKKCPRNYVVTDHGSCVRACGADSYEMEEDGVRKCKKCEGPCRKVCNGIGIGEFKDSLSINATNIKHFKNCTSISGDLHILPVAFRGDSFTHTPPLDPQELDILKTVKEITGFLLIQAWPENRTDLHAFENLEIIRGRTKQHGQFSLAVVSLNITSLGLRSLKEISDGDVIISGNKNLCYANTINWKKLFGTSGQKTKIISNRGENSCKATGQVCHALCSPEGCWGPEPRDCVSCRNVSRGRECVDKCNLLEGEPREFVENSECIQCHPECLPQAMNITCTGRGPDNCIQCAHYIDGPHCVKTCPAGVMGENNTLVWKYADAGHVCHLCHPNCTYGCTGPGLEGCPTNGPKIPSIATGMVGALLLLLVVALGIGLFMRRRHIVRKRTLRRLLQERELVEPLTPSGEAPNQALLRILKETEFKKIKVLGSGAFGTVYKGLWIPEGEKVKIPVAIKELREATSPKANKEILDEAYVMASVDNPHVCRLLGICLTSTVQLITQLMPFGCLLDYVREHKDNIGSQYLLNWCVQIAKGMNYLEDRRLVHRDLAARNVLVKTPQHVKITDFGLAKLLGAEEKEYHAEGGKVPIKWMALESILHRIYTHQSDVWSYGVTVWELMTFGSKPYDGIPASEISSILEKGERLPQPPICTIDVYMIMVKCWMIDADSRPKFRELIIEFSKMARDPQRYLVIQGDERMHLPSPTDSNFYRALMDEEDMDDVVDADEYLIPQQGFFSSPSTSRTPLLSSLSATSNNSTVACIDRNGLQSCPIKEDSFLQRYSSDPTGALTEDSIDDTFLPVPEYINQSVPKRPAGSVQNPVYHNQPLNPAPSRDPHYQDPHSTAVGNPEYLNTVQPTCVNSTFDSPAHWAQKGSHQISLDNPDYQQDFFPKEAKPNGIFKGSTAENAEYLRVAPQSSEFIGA
# [2] = system: skin cancer cell line, A431; assay: Inhibitory effect on growth of cancer cell line A431, SRB; assay type: cell-based; settings: overexpressed EGFR1 (HER-1)
# Summary of the method: (§1)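 Growth inhibition was measured by sulforhodamine-B staining (absorbance 570 nm) of TCA-fixed cells after 72 h compound exposure at 37 °C, 5% CO2. Test concentrations ran from 10 μM in 10-fold steps to 10^−4, with DMSO below 1%, in 10% FBS DMEM.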
# [3] = system: breast cancer cell line, SK-Br3; assay: Inhibitory effect on growth of cancer cell line SK-Br3, SRB; assay type: cell-based; settings: overexpressed EGFR2 (HER-2)
# Summary of the method: as §1
# [4] = system: colon and rectal cancer cell line, SW-620; assay: Inhibitory effect on growth of cancer cell line SW-620, SRB; assay type: cell-based; settings: not having overexpressed EGFR and EGFR2
# Summary of the method: as §1
SMILES,IC50 (VEGFR2 (KDR)),IC50 (EGFR1 (HER-1)),"IC50 ([2]; Homo sapiens, A-431, 72 h)","IC50 ([3]; Homo sapiens, SK-BR-3, 72 h)","IC50 ([4]; Homo sapiens, 72 h)","IC50 ([1]; Homo sapiens, 96 h)",IC50 ([1]; 96 hours),IC50 ([2]; 72 hours),IC50 ([3]; 72 hours),IC50 ([4]; 72 hours)
"C=CC(=O)Nc1cc2c(Nc3ccc(Br)cc3F)ncnc2cc1OCC(C)NC(=O)NCCC (stereo not drawn) [Example 85, N-{4-(4-bromo-2-fluoro-phenylamino)-7-[2-(3-propyl-ureido)-propoxy]-quinazolin-6-yl}-acrylamide]",784 nM,29 nM,38 nM,178 nM,2760 nM,964 nM,–,–,–,–
"C=CC(=O)Nc1cc2c(Nc3ccc(Br)cc3F)ncnc2cc1OCCNC(=O)C(C)N(C)C (stereo not drawn) [Example 58, N-{4-(4-bromo-2-fluoro-phenylamino)-7-[2-(2-dimethylamino-propionylamino)-ethoxy]-quinazolin-6-yl}-acrylamide]",954 nM,125 nM,116 nM,395 nM,5510 nM,945 nM,–,–,–,–
"C=CC(=O)Nc1cc2c(Nc3ccc(Br)cc3F)ncnc2cc1OCC1CCN(C(C)=O)CC1 [Example 1, N-[7-(1-acetyl-piperidin-4-ylmethoxy)-4-(4-bromo-2-fluoro-phenylamino)-quinazolin-6-yl]-acrylamide]",131 nM,3 nM,48 nM,283 nM,3060 nM,85 nM,–,–,–,–
"C=CC(=O)Nc1cc2c(Nc3ccc(Br)c(Cl)c3F)ncnc2cc1OC[C@@H](C)NC(=O)CN(C)C [Example 164, (R)—N-4-(4-bromo-3-chloro-2-fluoro-phenylamino)-7-[2-(2-dimethylamino-acetylamino)-propoxy]-quinazolin-6-yl-acrylamide]",713 nM,14 nM,–,–,–,–,754 nM,19 nM,36 nM,8970 nM
"C=CC(=O)Nc1cc2c(Nc3ccc(Br)cc3F)ncnc2cc1OC[C@H](C)NC(C)=O [Example 83, (S)—N-[7-(2-acetylamino-propoxy)-4-(4-bromo-2-fluoro-phenylamino)-quinazolin-6-yl]-acrylamide]",71 nM,98 nM,113 nM,933 nM,2870 nM,106 nM,–,–,–,–
"C=CC(=O)Nc1cc2c(Nc3ccc(Br)cc3F)ncnc2cc1OCCNC(=O)NC(C)CC (stereo not drawn) [Example 38, N-{4-(4-bromo-2-fluoro-phenylamino)-7-[2-(3-sec-butyl-ureido)-ethoxy]-quinazolin-6-yl}-acrylamide]",324 nM,20 nM,21 nM,245 nM,2580 nM,367 nM,–,–,–,–
"C=CC(=O)Nc1cc2c(Nc3cc(Cl)c(Cl)cc3F)ncnc2cc1OCCN(C)C [Example 136, N-[4-(4,5-dichloro-2-fluoro-phenylamino)-7-(2-dimethylamino-ethoxy)-quinazolin-6-yl]-acrylamide]",856 nM,321 nM,343 nM,181 nM,2940 nM,923 nM,–,–,–,–
"C=CC(=O)Nc1cc2c(Nc3ccc(Br)cc3F)ncnc2cc1OCCNC(=O)C1CC1 [Example 21, cyclopropane carboxylic acid {2-[6-acrylamino-4-(4-bromo-2-fluoro-phenylamino)-quinazolin-7-yloxy]-ethyl}-amide]",513 nM,8 nM,20 nM,36 nM,7900 nM,951 nM,–,–,–,–

# Now from value to compound, other results behind:
IC50 (VEGFR2 (KDR)),IC50 (EGFR1 (HER-1)),"IC50 ([2]; Homo sapiens, A-431, 72 h)","IC50 ([3]; Homo sapiens, SK-BR-3, 72 h)","IC50 ([4]; Homo sapiens, 72 h)",SMILES,"IC50 ([1]; Homo sapiens, 96 h)",IC50 ([1]; 96 hours),IC50 ([2]; 72 hours),IC50 ([3]; 72 hours),IC50 ([4]; 72 hours)
251 nM,98 nM,100 nM,4400 nM,2980 nM,"C=CC(=O)Nc1cc2c(Nc3ccc(Br)cc3F)ncnc2cc1OCCNC(=O)C(=O)OCC [Example 71, {2-[6-acryloylamino-4-(4-bromo-2-fluoro-phenylamino)-quinazolin-7-yloxy]-ethyl}-oxalamic acid ethylester]",286 nM,–,–,–,–
79 nM,98 nM,137 nM,198 nM,9760 nM,"C=CC(=O)Nc1cc2c(Nc3ccc(Br)c(Cl)c3F)ncnc2cc1OCCNC(=O)OC [Example 165, {2-[6-acryloylamino-4-(4-bromo-3-chloro-2-fluoro-phenylamino)-quinazolin-7-yloxy]-ethyl}-carbamic acid methylester]",189 nM,–,–,–,–
278 nM,21 nM,22 nM,242 nM,9530 nM,"C=CC(=O)Nc1cc2c(Nc3ccc(Br)c(Cl)c3F)ncnc2cc1OCCNC(=O)CCOC [Example 150, N-{4-(4-bromo-3-chloro-2-fluoro-phenylamino)-7-[2-(3-methoxy-propionylamino)-ethoxy]-quinazolin-6-yl}-acrylamide]",358 nM,–,–,–,–
584 nM,2 nM,16 nM,21 nM,5790 nM,"C=CC(=O)Nc1cc2c(Nc3ccc(Br)cc3F)ncnc2cc1OCCNC(=O)CN(C)C [Example 25, N-[4-(4-bromo-2-fluoro-phenylamino)-7-[2-(2-dimethylamino-acetylamino)-ethoxy]-quinazolin-6-yl]-acrylamide]",786 nM,–,–,–,–
136 nM,18 nM,19 nM,60 nM,2680 nM,"C=CC(=O)Nc1cc2c(Nc3ccc(Br)c(F)c3F)ncnc2cc1OCCNC(=O)CN(C)C [Example 124, N-{4-(4-bromo-2,3-difluoro-phenylamino)-7-[2-(2-dimethylamino-acetylamino)-ethoxy]-quinazolin-6-yl}-acrylamide]",268 nM,–,–,–,–
423 nM,45 nM,59 nM,456 nM,10000 nM,"C=CC(=O)Nc1cc2c(Nc3ccc(Br)c(Cl)c3F)ncnc2cc1OCCNC(=O)NC(C)(C)C [Example 54, N-{4-(4-bromo-3-chloro-2-fluoro-phenylamino)-7-[2-(3-t-butyl-ureido)-ethoxy]-quinazolin-6-yl}-acrylamide]",568 nM,–,–,–,–
88 nM,41 nM,45 nM,58 nM,2630 nM,"C=CC(=O)Nc1cc2c(Nc3ccc(Br)c(Cl)c3F)ncnc2cc1OCCNC(=O)CCO [Example 145, N-{4-(4-bromo-3-chloro-2-fluoro-phenylamino)-7-[2-(3-hydroxy-propionylamino)-ethoxy]-quinazolin-6-yl}-acrylamide]",116 nM,–,–,–,–
84 nM,102 nM,125 nM,5410 nM,10000 nM,"C=CC(=O)Nc1cc2c(Nc3ccc(Br)cc3F)ncnc2cc1OCCNC(=O)C(=O)O [Example 72, {2-[6-acryloylamino-4-(4-bromo-2-fluoro-phenylamino)-quinazolin-7-yloxy]-ethyl}-oxalamic acid]",106 nM,–,–,–,–
462 nM,26 nM,42 nM,103 nM,10000 nM,"C=CC(=O)Nc1cc2c(Nc3ccc(Br)cc3F)ncnc2cc1OCCNC(=O)CN(CC)CC [Example 167, N-{4-(4-bromo-2-fluoro-phenylamino)-7-[2-(2-diethylamino-acetylamino)-ethoxy]-quinazolin-6-yl}-acrylamide]",108 nM,–,–,–,–
161 nM,14 nM,16 nM,98 nM,2320 nM,"C=CC(=O)Nc1cc2c(Nc3ccc(Br)cc3F)ncnc2cc1OCCNC(=O)COC [Example 44, N-{4-(4-bromo-2-fluoro-phenylamino)-7-[2-(2-methoxy-acetylamino)-ethoxy]-quinazolin-6-yl}-acrylamide]",265 nM,–,–,–,–
